Reference: patent US20140342065A1 (priority 2012, published 2014)

What was measured:
[1] = test system: fruits, vegetables, meat, chicken and salmon; yeast and/or bacteria; assay: Food preservation with 500 mg NaHS in closed container at room temperature (FIG. 10)
Experimental: Representative samples of foods shown include fruits, vegetables, meat, chicken and salmon. […] Foods and fruits were stored in closed containers. The containers were made of aluminum with a plastic lid that snugly fitted onto the container rim. […] Control group (Control) of foods and fruits were stored within the containers. The experimental group (Exp) of foods and fruits were placed in the same type of containers and 500 mg of NaHS was placed in a glass cup which was placed in one corner of the container of the Exp group. The containers were not sealed. Using a H2S gas detector capable of detecting 1 to 500 ppm of H2S, no H2S was detected outside the containers. The amount of gas within the Exp containers varied from 5-40 ppm during the course of exposure. […] Experiments were carried out at room temperature for the durations shown. […] There is small change in color, consistency, and of the same food group and there is no evidence of growth of yeast in the NaHS treated group. Strawberry 80. […] The fruit also lost its consistency and is discolored. […] Raspberry 82. Growth of yeast is seen by day 4 and is pronounced on day 6 (arrow 83) in the control group. The fruit also lost its consistency and is discolored. […] Blackberry 84. Growth of yeast is seen by day 4 which is pronounced by day 6 (arrow 85) in the control group. The fruit also lost its consistency and is discolored. […] Banana 86. Growth of yeast is seen by day 8 (arrow 87) in the control group. The fruit also lost its consistency and is discolored. […] Sprout 88. Growth of yeast and bacteria is seen by day 4 (arrow 89) in the control group. Sprout also lost its consistency and is discolored. […] Leek 90. The vegetable is discolored in the control group by day 3. […] Avocado 91. Avocado was either homogenized (top two rows) or cut into small 1×1 cm pieces (bottom two rows) and stored in the containers. […] Mushroom 92. Mushroom is discolored in the control group. […] Cantaloupe 93. Growth of yeast is seen by day 3 and is severe on day 4 (arrows 94) in the control group. The fruit also lost its consistency and is discolored. […] Red meat 95 (top), Chicken 96 (middle) and Salmon 97 (Bottom). The control container developed a foul smell on day 3 which was pronounced on day 4. Larvae developed on day 3 in the control group and flies were found on day 4 in the control group. […] Agar plate cultures, 98. Samples from each fruit were diluted in phosphate buffered saline, pH 7.4. From each sample, 20 microliters was streaked on agar plates and plates were maintained either at room temperature or at 37° C. Samples from control group yielded bacteria or yeast only from control group. To directly test growth of these bacteria and yeast in presence of NaHS, samples of bacteria and yeast were streaked on agar plates and then stored without or with NaHS. 50 mg of NaHS was placed in an aluminum chamber and these were inserted on both sides of the Exp Petri dishes. Petri dishes were placed at room temperature or at 37° C. Colonies of bacteria and yeast were evident in the control group on day 1 and coalesced by day 3 as shown in the representative cultures 98. […] No growth was found for up to 2 months following initiation of cultures.

bacteria or yeast = conditions: exposed one day (NaHS 50 mg, gas 40 ppm or saturated water 0.04% 1 ml), then sealed two months at room temperature
From the text: Control counterparts were also kept at room temperature within a closed environment. Then, the plates were removed from these environments, sealed and placed at room temperature for two months.

[2] = test system: freshly cut chips of lettuce and lotus roots; assay: NaHS solution fumigation of freshly cut chips of lettuce and lotus roots
Experimental: (§1) Aqueous NaHS solutions (0.25-3.5 mmol/L) could release H2S gas (10^−12˜10^−10 mol/L). H2S rapidly, reached to the highest levels within several minutes and maintained a constant concentration. […] The NaHS solution was renewed every 48 or 72 hours. The NaHS solution was placed in a sealed container separated by a partition board with pores on it. The fresh cut vegetables including Broccoli, Lettuce, Lotus Root, Yam, Pumpkin, Sweet Potato, Potato, etc, and the fresh cut fruits Apple, Pear, Kiwi Fruit, Tomato, Hami Melon, and Peach were placed above the board, while the NaHS solution was placed under the board. Therefore, the fresh cut vegetables and fruits were fumigated with H2S gas released from NaHS in the solution.
The control freshly cut chips of lettuce and lotus roots that were treated with water (0.0 mmol/L NaHS) lost their water and edibility after 15-24 hours, while the freshness of freshly cut chips of lettuce and lotus roots treated with 0.1 mmol/L-1.0 mmol/L NaHS solution was prolonged by 12-18 hours.

[3] = test system: freshly cut chips of cantaloupe; assay: NaHS solution fumigation of freshly cut chips of cantaloupe
Experimental: as §1
The control freshly cut chips of cantaloupe that were treated with water (0.0 mmol/L NaHS) lost their color and became brown, while the freshness of freshly cut chips of cantaloupe treated with 0.05 mmol/L-1.5 mmol/L NaHS solution was prolonged by 8-12 hours.

bacteria and yeast = assay: Agar plate cultures stored with 50 mg NaHS (FIG. 10, 98); type: cell-based
Experimental: Representative samples of foods shown include fruits, vegetables, meat, chicken and salmon. […] Foods and fruits were stored in closed containers. The containers were made of aluminum with a plastic lid that snugly fitted onto the container rim. […] Control group (Control) of foods and fruits were stored within the containers. The experimental group (Exp) of foods and fruits were placed in the same type of containers and 500 mg of NaHS was placed in a glass cup which was placed in one corner of the container of the Exp group. The containers were not sealed. Using a H2S gas detector capable of detecting 1 to 500 ppm of H2S, no H2S was detected outside the containers. The amount of gas within the Exp containers varied from 5-40 ppm during the course of exposure. […] Experiments were carried out at room temperature for the durations shown. […] There is small change in color, consistency, and of the same food group and there is no evidence of growth of yeast in the NaHS treated group. Strawberry 80. […] The fruit also lost its consistency and is discolored. […] Raspberry 82. Growth of yeast is seen by day 4 and is pronounced on day 6 (arrow 83) in the control group. The fruit also lost its consistency and is discolored. […] Blackberry 84. Growth of yeast is seen by day 4 which is pronounced by day 6 (arrow 85) in the control group. The fruit also lost its consistency and is discolored. […] Banana 86. […]

freshly cut broccoli = assay: NaHS solution fumigation of freshly cut broccoli
Experimental: as §1
The controls of fresh cut broccoli that were treated with water (0.0 mmol/L NaHS) solution lost their edibility on day 3, while the shelf life of freshly cut broccoli treated with 0.25 mmol/L-1.75 mmol/L NaHS solution was prolonged by 2-3 days. […] The control of freshly cut broccoli treated with 0.0 mmol/L NaHS solution underwent rot process (due to physiological senescence and microbe infection) at 4 days, and the moldy rate reached 100%. In contrast, the treatment with 1.5 mmol/L H2S donor, NaHS, inhibited the infection by micro-organisms, and no infection appeared until day 9.

[4] = test system: Mollusks, bees, grasshopper, drosophila, butterflies, and flies; conditions: in vivo
From the text: First, it can be used in a closed space for the growth of crop and to protect the crop by its insecticidal, fungicidal, rodenticidal, pediculicidal, and biocidal actions.

Structure (SMILES): S [NaHS, sodium hydrosulfide]
- food spoilage and growth of mold and/or bacteria ([1]; 500 mg NaHS, H2S 5-40 ppm in container, room temperature): prevents food spoilage and growth of mold and/or bacteria
- discoloration ([1]; Avocado homogenized or cut pieces, day 3): maintained nearly the same color as that on day 1
- yeast growth, loss of consistency, discoloration ([1]; Banana, day 8): These changes are not seen in the Exp group
- yeast growth, loss of consistency, discoloration ([1]; Blackberry, day 6): These changes are not seen in the Exp group
- yeast growth, loss of consistency, discoloration ([1]; Cantaloupe, day 4): These changes are not seen in the Exp group
- discoloration ([1]; Leek, day 3): These changes are not seen in the Exp group
- discoloration ([1]; Mushroom): These changes are less severe in the Exp group
- yeast growth, loss of consistency, discoloration ([1]; Raspberry, day 6): These changes are not seen in the Exp group
- discoloration, foul smell, larvae and flies ([1]; Red meat, Chicken and Salmon, day 4): Meat discolored in the Exp group on day 4 but there was no evidence of foul smell or flies
- growth of yeast and bacteria, loss of consistency, discoloration ([1]; Sprout, day 4): These changes are not seen in the Exp group
- yeast growth, loss of consistency, discoloration ([1]; Strawberry, day 4): These changes are not seen in the Exp group
- growth of bacteria and yeast on agar plates (bacteria or yeast): no growth was evident
- freshness prolonged by ([2]; 0.1 mmol/L-1.0 mmol/L NaHS, control lost water and edibility after 15-24 hours): 12 to 18 h
- freshness prolonged by ([2]; 0.8 mmol/L-1.0 mmol/L NaHS (best)): 18 h
- freshness prolonged by ([3]; 0.05 mmol/L-1.5 mmol/L NaHS): 8 to 12 h
- freshness prolonged by ([3]; 0.9 mmol/L-1.0 mmol/L NaHS (best)): 12 h
- time without growth following initiation of cultures (bacteria and yeast): up to 2 months
- colonies of bacteria and yeast on agar plates (bacteria and yeast; room temperature or 37° C., day 1-3): no growth was evident
- shelf life prolonged by (freshly cut broccoli; 0.25 mmol/L-1.75 mmol/L NaHS, control lost edibility on day 3): 2 to 3 days
- shelf life prolonged by (freshly cut broccoli; 1.5 mmol/L NaHS (most optimal)): 3 days
- day until which no infection by micro-organisms appeared (freshly cut broccoli; 1.5 mmol/L NaHS, control moldy rate 100% at 4 days): 9 days
- death of pests [4]: die within seconds
